A short description of series [1]: Plasma concentrations after a single 300 mg dose of vanoxerine in 25 patients (Example 1). The class given is in vivo, human. The note with it: low concentration group. Here is the method:
Each patient gave samples before administration of their dose, and then again at nine further time points, 30 minutes after administration, 1, 2, 3, 4, 6, 8, 12, and 24 hours post administration.

A short description of series [2]: Plasma concentration of vanoxerine in individual arrhythmia patients (Example 2). The class given is in vivo, human.
Series [3] concerns cardiac arrhythmia. Description: Conversion to normal sinus rhythm in individual patients (Example 2). The series is classed as in vivo, human. The note with it: second patient, supraventricular tachycardia, 200 mg + 200 mg. The method, then: Accordingly a further dose was required and administered to the patient. […] Wherein the patient is instructed to utilize a monitoring device with instructions on pricking the finger and providing a blood sample, for testing of the blood. Wherein the plasma concentration has not met at least 60 ng/ml, the second dose is to be taken to ensure that the patient achieves suitable plasma concentrations and converts to normal sinus rhythm.

The conditions of series [4]: human, in vivo, 50 mg. The text has this:
The results are listed below in Table 7.

Series [5] in a line: Daily doses for 14 days in fourteen healthy patients (Example 4). The series is classed as in vivo, human. The conditions noted are these: 25, 75 and 125 mg daily for 14 days. The method, then:
A standardized meal was served 15 minutes prior to each dosing.

In series [6] the test system is "pure" atrial flutter. The experiment in a line: Conversion of Atrial Flutter (Example 6). The class given is in vivo, human. The conditions noted are these: any time within 24 hours, N 4. Here is the method:
The vanoxerine or identical appearing placebo was randomly assigned and administered in a double-blinded fashion. Definition of “pure” atrial flutter: only Atrial Flutter (no AF) seen at −30, −15, and 0 time points. Conversion at any time within 24 hours.

The nature of series [7]: Adverse events in the placebo-controlled study (Example 6). The class given is in vivo, human. The source says:
The vanoxerine or identical appearing placebo was randomly assigned and administered in a double-blinded fashion.

The conditions of series [8]: healthy subjects; cited from earlier work.
Setting [9] is: first patient, atrial fibrillation, 200 mg.
The mark [10] stands for this setting: second patient, supraventricular tachycardia, first 200 mg dose.
Setting [11] is: third patient, premature ventricular contractions, 200 mg.

Results on 1 compound are retold here after patent US20160303112A1 (Laguna Pharmaceuticals, Inc., priority 2013, published 2016).

As to `Fc1ccc(C(OCCN2CCN(CCCc3ccccc3)CC2)c2ccc(F)cc2)cc1` [Vanoxerine, 1-[2-[bis(4-fluorophenyl)methoxy]ethyl]-4-(3-phenylpropyl)piperazine], in series [1], the “Highest plasma level at any time point” value was about 40 ng/mL. Also, the “maximum concentration in the plasma” value in series [2] (setting [9]) is recorded as “about 70 ng/ml”; in series [2] (setting [10]), “about 20 ng/ml”; in series [2] (setting [11]), “about 150 ng/ml”. Further, the “time of maximum concentration post administration” value in series [2] (setting [9]), in series [2] (setting [10]) and in series [2] (setting [11]) was 60 min in each case. For the same compound, in series [2] (human, plasma, second patient, 180 minutes after first dose, further 200 mg given at 120 minutes), the concentration at 180 minutes was 60 ng/mL. Further, the “time of conversion to normal sinus rhythm post administration of the first dose” value in series [3] was “about 6 hours”. For the same compound, the TMax result in series [4] was “TMax 1.27 +− 0.5 hr (0.5-2.0)”. For the same compound, the “steady state serum levels versus dose” value in series [5] is “disproportionately and statistically greater levels at higher doses”. In addition, the “Conversion of Atrial Flutter” value in series [6] (200 mg) was determined as 50%; in series [6] (300 mg), 75%; in series [6] (400 mg), 75%. In addition, the “number of AEs reported” value in series [7] (200 mg (22)) is listed as “reporting 8 AEs”; in series [7] (300 mg (25)), “reporting 12 AEs”; in series [7] (400 mg (25)), 23 AEs. In addition, the “number of SAE” value in series [7] (200 mg (22)) and in series [7] (400 mg (25)) was “(1 SAE)” each time. For the same compound, the proarrhythmia entry in series [7] (200, 300, 400 mg) is on record as “absence of proarrhythmia”. For the same compound, the tolerability entry in series [7] (all doses (200, 300, 400 mg)) is on record as “well tolerated”. Moreover, the serious adverse events entry in series [7] (one at 200 mg, one at 400 mg, neither related to the study drug) is on record as “only two serious adverse events”. Further, the serum concentrations entry in series [8] was “unexpected fluctuations in serum concentrations”.
